Experimental findings from US20200338112A1, “METHODS AND MATERIALS FOR TREATING CANCER” (Mayo Foundation for Medical Education and Research, priority 2018, published 2020) are described below.

Entries after “also recorded” stand apart in the source; their conditions may differ. Where a SMILES comes first, the peptide text is derived from it. The star is where a group is joined. Cbz = O=C(OCc1ccccc1)*

The test system of test [1] is NBS1 protein level in MDA-MB-231 cells. The test is described as follows: Western blot of NBS1 protein level after MG132 treatment. Format: cell-based. To be noted: MG132 10 μM for six hours; PD-L1 depleted MDA-MB-231 cells; FIG. 3c. How it is done: FIGS. 3a and 3b contain western blot analyses of BRCA1, NBS1, RAD50, MRE11, and PD-L1 in HCT116 and MDA-MB-231 cells, respectively, that were infected with lentiviral control shRNA or two different shRNAs targeting PD-L1. GAPDH was used as a loading control. FIG. 3c contains a western blot of NBS1 protein levels in MDA-MB-231 cells infected with lentivirus control shRNA or two different shRNAs targeting PD-L1 were treated with DMSO (control) or MG132 (10 μM) for six hours before proteins were harvested. GAPDH and p53 were used as loading and positive control, respectively. […] GAPDH was used for normalization. FIGS. 3e, 3f, and 3g assess HCT116 cells treated with the transcription inhibitor actinomycin D (5 μg/mL). NBS1 mRNA levels were quantified using RT-PCR. Knockdown of PD-L1 in HCT116 decreased the half-life of NBS1 and BRCA1 mRNA, while restoring PD-L1 in the knockdown cells rescued the phenotype (±s.e.m., n=3). GAPDH was used for normalization. […] The change of NBS1 and BRCA1 mRNA level was not due to transcription, since the transcription of BRCA1 was not changed, while the transcription of NBS1 was even increased after PD-L1 was knocked down (±s.e.m., n=3). GAPDH was used for normalization. FIG. 3i contains representative pictures of the subcellular localization of PD-L1. The immunofluorescence was performed in HCT116 cells. […]
(Immunoblotting shows a protein as a band on a membrane.)

The subject of another test is cells. The test is described as follows: Colony formation of cells pretreated with durvalumab, then IR. As to conditions: durvalumab 10 μg/mL, 24 hours before IR, FIG. 1f. The class given is cell-based. As for the experimental part: FIG. 1a contains colony formation experiments of HCT116 cells under either ionizing radiation (IR) (0, 2, 4 Gy) or cisplatin (0, 0.5, 1 and 2 μM) treatment. […] FIG. 1b contains knockdown and overexpression efficiency validation of PD-L1 in HCT116 using western blot; glyceraldehyde 3-phosphate dehydrogenase (GAPDH) was used as a loading control. […] The formation of rH2AX foci was sustained in PD-L1 depletion group compared to control group, data is represented as mean±s.e.m for each view. FIG. 1e contains an assessment of wild-type (+/+, n=16), PD-L1 heterozygous (+/−, n=24), and PD-L1 knockout (−/−, n=16) BALB/C mice that were exposed to whole body irradiation (7 Gy). Comparisons between groups were made using the Log-rank test. […] Result were based upon colony formation (±s.e.m., n=3).

For `CC(C)C[C@@H](C=O)NC(=O)[C@H](CC(C)C)NC(=O)[C@H](CC(C)C)NC(=O)OCc1ccccc1` [MG132] (Cbz-Leu-Leu-Leu-aldehyde), the “recovery of NBS1 protein level in PD-L1 depleted cells” value in test [1] was “did not recover”.
Take durvalumab: in the test with cells, the “sensitization of cells to IR (DNA damage stimulation)” value was “did not sensitize cells to DNA damage stimulation; also recorded: did not sensitize cells to IR”.
